Where two headings read alike, the source gives them in different places.

The values that follow come from article PMC5838563, “Compounds producing an effective combinatorial regimen for disruption of HIV‐1 latency” (EMBO Molecular Medicine, 2017).

For test [1], the system named is HIV‐1 LTR (Jurkat^Tat LTR‐luciferase cell line). Briefly: Jurkat^Tat LTR‐luciferase reporter assay for HIV‐1 latency reversal. In kind it is cell-based. Conditions: for EC50: Human immunodeficiency virus 1, 24 h treatment, percent activation relative to PMA; for latency‐reversing activity of PH02 analogs compared with PH02: 24 h, also in Jurkat^Tat LTR‐DsRed clones #11 and #131. As for the experimental part:
Activity of compounds identified for latency‐reversing activity in the primary screens was further validated by examining the effect of a single concentration (7 μM) on an alternative reporter cell line, bearing an integrated HIV‐1 reporter virus where luciferase expression is produced from the 5′ LTR, in cells constitutively expressing the viral TAT protein (Fig 2A), referred to as Jurkat^Tat LTR‐luciferase. Importantly, this cell line has the HIV‐1 reporter virus integrated at a different chromosomal location than that of the A1 J‐Lat cell line and also enables validation of provirus reactivation with a second enzymatic luciferase assay. In these assays, after 24‐h treatment we observed 10 compounds that produced significant induction of luciferase activity, including two compounds from the KD2 library, three from the CCBN library and five compounds from the DIVERSet. Compounds that produced significant effects in these secondary assays were re‐ordered from their respective suppliers and examined in more detail using the HIV‐luciferase reporter cell line. […] These five compounds represent diverse chemical structures (Fig 2G).
Figure 2 Concentration–response analysis for five selected PH compounds • A Schematic representation of the pTY‐LAI‐luciferase reporter virus used in secondary screening assays, where luciferase expression is under the control of the 5′ LTR, in cloned lines derived from Jurkat^TAT cells bearing single‐copy integrants. • B–F Luciferase activity was measured from reporter cells treated for 24 h with the indicated compound concentrations. Results are presented as percent activation relative to PMA‐treated controls. The EC50 for each compound is indicated. Mean and standard error (SE) for the results are determined from three biological replicates (n = 3) and technical duplicates. • G Illustration of chemical structures of the PH compounds.
Luciferase assays were performed in 96‐well plate format, where 100 μl of cell culture containing 1 × 10^5 luciferase reporter cells was plated per well. After the indicated time of treatment, 100 μl of luciferase assay reagent (SuperlightTM luciferase reporter Gene Assay Kit; BioAssay Systems) was added per well, and incubated for 2 min at RT, when luciferase activity was measured on a VictorTM X3 Multilabel Plate Reader. Results were presented relative to the positive control samples treated with 50 nM PMA. T‐cell activation was measured using 1 × 10^5 wild‐type Jurkat^Tat cells or PBMCs purified from healthy donors, treated as indicated. After 24 h, cells were incubated with 2.4G2 antibody to block nonspecific binding and further stained with 5 μl of anti‐human CD69 or an IgG1 isotype control antibody conjugated with PE‐Cy^Tm7. After 30‐min incubation on ice, the cells were washed twice with PBS and analyzed using a Becton Dickinson LSRII flow cytometer (BD Biosciences) to determine mean fluorescence intensity (MFI), using FlowJo software. The mean fluorescence intensity (MFI) obtained from cells stained with IgG isotype antibody control was subtracted from that from cells stained with CD69 to compensate for background (MFICD69‐MFIIgG). IL‐2 production was measured in cell culture supernatants using a human IL‐2 ELISA System (eBioscience). Jurkat^Tat clones bearing integrations of the mini‐dual HIV reporter virus, clone #11 and #131, were plated at 1 × 10^5 per well in a 96‐well plate format, treated for the indicated time, washed with 1 ml PBS, and then transferred into flow cytometry tubes, where they were fixed with freshly made 1% formaldehyde for 10 min at RT prior to analysis by flow cytometry. Results are presented as ΔMFI, where MFI obtained from parental Jurkat^Tat cells undergoing the same treated was subtracted from the MFI corresponding to each cell line; ΔMFI = (MFI compound‐treated cell line 131/11 − MFI compound‐treated WT Jurkat^Tat cells).

Test [2] has as its system latent HIV‐1 provirus in resting CD4^+ T cells from HIV‐1‐infected patients. As to the kind of experiment: Supernatant HIV‐1 RNA from resting CD4+ T cells of patients (RT–qPCR). The test is classed as cell-based. As to conditions: 24 h. As for the experimental part: For this analysis, we purified resting CD4^+ (rCD4^+) T lymphocytes from pools of patient samples by two‐step negative selection (Appendix Table S3). […] Purified rCD4^+ T cells were treated with 30 μM of each PH compound for 24 h, and RNA from the culture supernatants was analyzed by one‐step RT–qPCR, where results are presented as copy numbers of the virion/ml. […] Based on its capability for reactivating latent provirus at multiple chromosomal locations in cell lines, its negligible toxic effect, and that it produces the most robust reactivation of virus from patient samples, we focused our subsequent analysis on this compound (Table 1).
Figure 8 Effect of PH compounds on expression of HIV provirus in latently infected cells from patients Resting CD4^+ T cells purified from patient samples (n = 18, Appendix Table S3) were treated with 30 μM of each PH compound for 24 h, and HIV‐1 RNA was measured in culture supernatants. Results are presented as HIV virions/ml (mean ± SE). LOD indicates the limit of detection, 100 copies/ml culture supernatant. TEXT PRINTED IN THE PICTURE: PMA: Supernatant HIV-1 mRNA (Copies/ml): 308929.80 (50 nM) | PH01: Supernatant HIV-1 mRNA (Copies/ml): 5348.04 (Single Concentration (30μM)) | PH02: Supernatant HIV-1 mRNA (Copies/ml): 17624.53 (Single Concentration (30μM)) | PH03: Supernatant HIV-1 mRNA (Copies/ml): 4714.11 (Single Concentration (30μM)) | PH04: Supernatant HIV-1 mRNA (Copies/ml): 7134.68 (Single Concentration (30μM)) | PH05: Supernatant HIV-1 mRNA (Copies/ml): 587.19 (Single Concentration (30μM))
HIV‐1 RNA was measured from 1 × 10^6 resting CD4^+ T lymphocytes treated with 30 μM of each compound. Extracellular RNA was isolated using the ZR Viral RNA Kit (Zymo Research) and total cellular mRNA using the RNeasy MinElute cleanup kit (Qiagen). HIV‐1 RNA concentrations were assayed in one‐step RT–qPCRs using the iTaq™ universal SYBR Green one‐step kit (BIO‐RAD) with the HIV‐1 LTR‐specific primers, AGCCGCCTAGCATTTCATC and […]. RNA copy number was calculated using a standard curve generated from titrated infections with RGH‐PGK virus (Dahabieh et al, 2013). Reproducibility of RT–qPCR analysis was confirmed using a second set of primers within HIV‐1 p24 Gag, AGCAGCCATGCAAATGTTA, […]. HIV‐1 RNA determinations were normalized to GAPDH RNA measured using the primers […] and […].

The subject of the next test is HIV reservoir. Conditions: cited from earlier work.
Test [3] relates to HIV‐1 LTR (Jurkat^Tat LTR‐DsRed clone #11). As to the kind of experiment: mdHIV LTR‐DsRed reporter assay, clone #11. In kind it is cell-based. Conditions: PMA stimulation, of eGFP expressing cells. The text has this: HIV‐1 tends to integrate into actively transcribed regions of the host genome (Jordan et al, 2003; Lewinski et al, 2006; Ikeda et al, 2007). Each HIV‐1‐infected patient carries viral DNA integrated at different chromosomal locations, and as we have previously shown, the site of viral integration influences how latently infected T cells respond to different stimuli (Hashemi et al, 2016). Therefore, an ideal LRA should be capable of disrupting latency in cell models carrying integrated viral reporters at multiple different regions within the host genome. To assess this capability for the PH compounds, we used two additional previously described cell lines, designated Jurkat^Tat LTR‐DsRed clones #11, and #131, that carry a mini‐dual fluorescent HIV‐1 LTR reporter (mdHIV) at different chromosomal locations. The minivirus mdHIV has two fluorescent reporters in which DsRed expression is driven from the 5′ LTR, and eGFP is constitutively expressed from an internal EIF‐1α promoter (Fig 5A). […]
Figure 5 Effect of PH02 on HIV provirus integrated at different chromosomal locations • A The effect of PH compounds was analyzed using clonal lines bearing single‐copy integrations of the mini‐dual fluorescent HIV‐1 LTR reporter, md‐HIV, where GFP is constitutively expressed from the EIF‐1α internal promoter, and DsRed from the 5′ LTR. • B Fluorescence‐activated cell sorting (FACS) of cells bearing md‐HIV provirus indicates expression of EIF‐1α‐GFP and LTR‐dsRed. Stimulation of the md‐HIV lines generally causes a shift of the fluorescence profile from GFP^+/DsRed^− toward GFP^+/DsRed^+. • C, D Clone 11 or clone 131 was treated with the indicated concentrations of PH02 (left panels) or PH02 in combination with 10 nM PEP005 (right panels) for 24 h and cells analyzed by flow cytometry. Results presented as Δmean fluorescence intensity (ΔMFI) of DsRed expression and fold increase in DsRed expression for solo and combination treatments, respectively. Mean and SE are determined from three biological replicates (n = 3) and technical duplicates. […]

What is called EC50 is the concentration that produces a half-maximal response. With `Cc1cc(I)cnc1NC(=S)NC(=O)c1ccco1` [PH04, N‐{[(5‐iodo‐3‐methyl‐2‐pyridinyl)amino]carbonothioyl}‐2‐furamide], the concentration giving a half-maximal response (EC50) in test [1] worked out at 2560 nM. For the same compound, in test [2] (30 μM, LOD 100 copies/ml), the “Supernatant HIV-1 mRNA” value worked out at 7134.68 Copies/ml.
Take `O=C(CCCCCCC(=O)Nc1ccccc1)NO` [Vorinostat, suberoylanilide hydroxamic acid]: in the test on HIV reservoir (400 mg daily for 14 days or 3 days a week for 8 weeks, ref Archin et al, 2014, Elliott et al), the “reduction in the HIV reservoir” value was “did not produce a reduction in the HIV reservoir”.
`Cl.Nc1ccc(-c2ccc3ccccc3n2)cc1` [PH03, 2‐(4‐aminophenyl)quinoline hydrochloride]: in test [1], the EC50 was 1250 nM. In addition, the “Supernatant HIV-1 mRNA” value in test [2] (30 μM, LOD 100 copies/ml) is given as 4714.11 Copies/ml.
As to `COc1ccccc1N(/C=C1\Sc2ccccc2C1=O)C(C)=O` [PH02a, N-(2-methoxyphenyl)-N-[(3-oxo-1-benzothien-2(3H)-ylidene)methyl]acetamide], the “latency‐reversing activity of PH02 analogs compared with PH02” value in test [1] is listed as “significant reduction”.
As for `Cc1[nH]c2ccccc2c1CCNCc1ccc(/C=C/C(=O)NO)cc1` [Panobinostat], the “reduction in the HIV reservoir” value in the test with HIV reservoir (20 mg three times a week every other week for 8 weeks, ref Rasmussen et al, 2014) is given as “did not produce a reduction in the HIV reservoir”.
For the compound `CCCCCCCCCCCCCC(=O)O[C@@H]1[C@@H](C)[C@@]2(O)[C@@H](C=C(CO)C[C@]3(O)C(=O)C(C)=C[C@@H]23)[C@@H]2C(C)(C)[C@]12OC(C)=O` [PMA, phorbol 12‐myristate 13‐acetate, reference compound], the “cells producing dsRed expression upon stimulation” value in test [3] is on record as ~ 40%. The “Supernatant HIV-1 mRNA” value in test [2] (50 nM, positive control) is 308929.80 Copies/ml.
In the case of `Cn1c(C=Cc2c[nH]c3ccccc23)nc2ccccc2c1=O` [PH01, 2‐[2‐(1H‐indol‐3‐yl)vinyl]‐3‐methyl‐4(3H)‐quinazolinone], the EC50 in test [1] was 141 nM. In addition, the “Supernatant HIV-1 mRNA” value in test [2] (30 μM, LOD 100 copies/ml) stood at 5348.04 Copies/ml.
As for `COc1ccccc1N(C=O)/C=C1\Sc2ccccc2C1=O` [PH02b, (2-methoxyphenyl)[(3-oxo-1-benzothien-2(3H)-ylidene)methyl]formamide], the “latency‐reversing activity of PH02 analogs compared with PH02” value in test [1] is “significant reduction”.
Consider `COc1cccc(-n2nnc(C(=O)Nc3ccc(C)cc3)c2C)c1` [PH05, 1‐(3‐methoxyphenyl)‐5‐methyl‐N‐(4‐methylphenyl)‐1H‐1,2,3‐triazole‐4‐carboxamide], for which the EC50 in test [1] amounted to 5900 nM. For the same compound, in test [2] (30 μM, LOD 100 copies/ml), the “Supernatant HIV-1 mRNA” value stood at 587.19 Copies/ml.
